This is an account of results in patent US20170044121A1, “TETRA-O-SUBSTITUTED BUTANE-BRIDGE MODIFIED NDGA DERIVATIVES, THEIR SYNTHESIS AND PHARMAECUTICAL USE” (Erimos Pharmaceuticals LLC, priority 2006, published 2017).

The Papp A→B is how fast a substance crosses the layer from the apical side. High values mean fast passage, low ones slow passage. For orientation: pIC50 means the negative decadic logarithm of the IC50, by convention in mol/L. A word on the melting point: it is the temperature, or range, at which the solid turns liquid. One may read the pEC50 as the negative decadic logarithm of the EC50, by convention in mol/L.

The nature of one data set: in vitro. Conditions: human, Caco-2, pH 7.4, Papp mean A to B.
Data set [1] deals with Caco-2 cell monolayers. Conditions: human, Caco-2, 90 min, 50 μM, pH 7.4.
In data set [2] the test system is HeLa (cervical adenocarcinoma). Nature of the data set: MTS cell viability assay, HeLa. The class given is cell-based. Conditions: read-out: HeLa IC50. On the technique in general: Tetrazolium dyes change colour on reduction, which living cells bring about.
The test system of the next data set is A549 (lung carcinoma). As to the kind of experiment: MTS cell viability assay, A549. It is filed as cell-based.
The conditions of data set [3]: cited from earlier work.
For data set [4], the system named is H-69 small cell lung cancer cells. Conditions: cited from earlier work.
The subject of data set [5] is Caco-2 cell monolayers. Conditions: Caco-2 test system, historical values; cited from earlier work.
In data set [6] the test system is TAT transactivation of the HIV-1 LTR promoter (TAT-TRS). Nature of the data set: cells. It is filed as cell-based. Conditions: Human immunodeficiency virus 1, COS-7, 48 h, read-out: SEAP EC50.
The next data set concerns COS-7 cells. As to the kind of experiment: MTT cytotoxicity in COS-7 cells (run with SEAP). The class given is cell-based, green monkey. Conditions: Chlorocebus sabaeus.
Another data set deals with MCP-1. As to the kind of experiment: MCP-1 protein production in TNF-α-treated primary human keratinocytes. It is filed as cell-based. Conditions: Keratinocyte, read-out: MCP-1 IC50.
For data set [7], the system named is Caco-2 cell monolayers. As to the kind of experiment: Caco-2 monolayer permeability study. Conditions: Caco-2, 5 μM, 90 minutes. In general terms: Caco-2 monolayers are a common model of the intestinal barrier.
Data set [8] in a line: Caco-2 monolayer permeability study. Conditions: human, Caco-2, pH 7.4, Papp mean A to B, Caco-2, 5 μM, 90 minutes, pH 7.4.
[9] abbreviates: Homo sapiens, A549, read-out: A549 IC50.

pEC50, pIC50: −log10 of the molar value. Structures can show the parent of a compound that is named as a salt. Where two headings read alike, the source gives them in different places.

For `OC[C@@H](O)[C@@H](O)[C@H](O)[C@H](O)CO` [mannitol, reference compound], in the data set “in vitro”, the apparent permeability from apical to basolateral (Papp A→B) at 90 min, 50 μM turned out to be 0.514 ×10⁻⁶ cm/s. Besides, the “Mass balance mean A to B” value in the data set on Caco-2 cell monolayers [1] came out at 96%.
Regarding `CN1CCN(CCOc2ccc(CCCCc3ccc(OCCN4CCN(C)CC4)c(OCCN4CCN(C)CC4)c3)cc2OCCN2CCN(C)CC2)CC1` [Compound F, 1,4-bis{3,4-bis[2-(1-methyl-piperazin-4-yl)-ethoxy]phenyl}-butane], the pIC50 in data set [2] (Homo sapiens, HeLa) was under 4.00; with A549 (lung carcinoma) (setting [9]), under 4.00.
As to `c1cc(OCCCN2CCCCC2)c(OCCCN2CCCCC2)cc1CCCCc1ccc(OCCCN2CCCCC2)c(OCCCN2CCCCC2)c1` [Compound E, 1,4-bis{3,4-bis[3-(piperidin-1-yl)propoxy]phenyl}-butane tetrakis-hydrochloride salt], the pIC50 in data set [2] (MTS assay) was 5.00 to 5.30; in the data set on A549 (lung carcinoma) (MTS assay, read-out: A549 IC50) it was 5.05.
As for `COc1ccc(C[C@@H](C)[C@@H](C)Cc2ccc(OC)c(OC)c2)cc1OC` [Compound M4N, (tetra-O-methyl)nordihydroguaiaretic acid], in data set [3], the water solubility result was “poor”.
Take `Cc1nc(COc2ccc(CCCCc3ccc(OCc4csc(C)n4)c(OCc4csc(C)n4)c3)cc2OCc2csc(C)n2)cs1` (as salt: hydrochloride) [Compound G, 1,4-bis{3,4-bis(2-methyl-thiazol-4-yl-methoxy)phenyl}-butane tetrakis-hydrochloride salt]: the melting point was 96 to 98 °C.
On to `Oc1ccc(CCCCc2ccc(O)c(O)c2)cc1O` [Compound B, 1,4-bis-(3,4-hydroxyphenyl) butane], for which the melting point lay within 140 to 142 °C. Besides, the “potency relative to NDGA as proliferative inhibitor” value in data set [4] is 10 times.
In turn, `CC(C)NCC(O)COc1cccc2ccccc12` (stereo not shown) [propranolol, reference compound] had a Papp A→B at 90 min, 50 μM in “in vitro” of 14.2 ×10⁻⁶ cm/s. Moreover, the “Mass balance mean A to B” value with Caco-2 cell monolayers [1] is given as 71%. Moreover, the “Papp historical range at the testing facility (mean ± SD)” value in the data set on Caco-2 cell monolayers [5] is 1.5×10^−5±4.2×10^−5.
Regarding `CCOc1ccc(CCCCc2ccc(OCC)c(OCC)c2)cc1OCC` [Compound C, 1,4-bis-(3,4-ethoxyphenyl) butane], the melting point is 113 to 115 °C. The negative-log IC50 (pIC50) in data set [2] (Homo sapiens, HeLa, MTS assay) was under 4.00. Also, in data set [6], the pEC50 is under 4.00. Moreover, in the data set with A549 (lung carcinoma) (Homo sapiens, A549, MTS assay, read-out: A549 IC50), the pIC50 is under 4.00. Moreover, the negative logarithm of the IC50 (pIC50) in the data set on COS-7 cells (MTT assay, COS-7 test cells of the SEAP assay, read-out: COS-7 IC50) was under 4.00. In the data set on MCP-1 (TNF-α-treated PHK, MCP-1 protein production, ELISA), the pIC50 is under 4.00.
For the compound `C[C@H]1O[C@@H](O[C@H]2[C@@H](O)C[C@H](O[C@H]3[C@@H](O)C[C@H](O[C@H]4CC[C@@]5(C)[C@H](CC[C@@H]6[C@@H]5C[C@@H](O)[C@]5(C)[C@@H](C7=CC(=O)OC7)CC[C@]65O)C4)O[C@@H]3C)O[C@@H]2C)C[C@H](O)[C@@H]1O` [digoxin, reference compound], in the data set with Caco-2 cell monolayers [7], the “Mass balance mean A to B” value is reported as 73%, the “Mass balance mean B to A” value is given as 79% and the “Polarization Ratio mean (B-A/A-B)” value is listed as 5.4. Besides, in the data set with Caco-2 cell monolayers [7] (pH 7.4), the “Papp mean B to A” value is 12.4 ×10⁻⁶ cm/s. Also, the Papp A→B at 90 min, 5 μM in data set [8] is 2.28 ×10⁻⁶ cm/s.
As for `COc1ccc(CCCCc2ccc(OC)c(OC)c2)cc1OC` [Compound A, 1,4-bis-(3,4-methoxyphenyl) butane], the pIC50 in data set [2] (Homo sapiens, HeLa) was under 4.00; in the data set with A549 (lung carcinoma) (setting [9]), under 4.00; in the data set with COS-7 cells (COS-7, read-out: COS-7 IC50), under 4.00; in the data set with MCP-1, under 4.00. In data set [6], the pEC50 was under 4.00.
Consider `Cc1nc(COc2ccc(CCCCc3ccc(OCc4csc(C)n4)c(OCc4csc(C)n4)c3)cc2OCc2csc(C)n2)cs1` [Compound G, 1,4-bis{3,4-bis(2-methyl-thiazol-4-yl-methoxy)phenyl}-butane tetrakis-hydrochloride salt], for which the negative logarithm of the IC50 (pIC50) is under 4.00 in data set [2] (Homo sapiens, HeLa) and under 4.00 in the data set with A549 (lung carcinoma) (setting [9]).
